This note sets out measurements from ChEMBL document CHEMBL4732067, “Synthesis and evaluation of new compounds bearing 3-(4-aminopiperidin-1-yl)methyl magnolol scaffold as anticancer agents for the treatment of non-small cell lung cancer via targeting autophagy” (Eur J Med Chem, 2021).

The test system of series [1] is NCI-H460. The experiment in a line: Antitumor activity against human NCI-H460 cells xenografted in nude BABL/c mouse assessed as tumor growth inhibition at 10 mg/kg, po administered once daily and measured every two days by caliper method relative to control. Type of series: functional. Particulars: 48 h, read-out: TGI. In general terms: A xenograft is tissue or cells of one species grown in another, often human tumour cells in immunodeficient mice.

The subject of series [2] is HCC827. Kind of series: Antiproliferative activity against human HCC827 cells assessed as reduction in cell viability after 72 hrs by MTT assay. Type of series: functional, cell-based. Particulars: HCC827, 72 h.
Series [3] relates to NCI-H1975. Kind of series: Antiproliferative activity against human NCI-H1975 cells assessed as reduction in cell viability after 72 hrs by MTT assay. Type of series: functional, cell-based. Particulars: NCI-H1975, 72 h.
Series [4] concerns NCI-H460. The experiment in a line: Antiproliferative activity against human NCI-H460 cells assessed as reduction in cell viability after 72 hrs by MTT assay. The format is functional, cell-based. Particulars: NCI-H460, 72 h. A general note: Formazan colour is commonly taken as a measure of viable cells.
For series [5], the system named is A549. The experiment in a line: Antiproliferative activity against human A549 cells expressing wild type EGFR assessed as reduction in cell viability after 72 hrs by MTT assay. Type of series: functional, cell-based. Particulars: A549, 72 h.
Series [6] can be described thus: Antiproliferative activity against human SPCA1 cells expressing wild type EGFR assessed as reduction in cell viability after 72 hrs by MTT assay. Particulars: SPCA1, 72 h. The format is functional, cell-based.
In series [7] the test system is NCI-H1650. The experiment in a line: Antiproliferative activity against human NCI-H1650 cells expressing EGFR mutant assessed as reduction in cell viability after 72 hrs by MTT assay. Type of series: functional, cell-based. Particulars: NCI-H1650, 72 h.
Series [8] concerns NCI-H441. Kind of series: Antiproliferative activity against human NCI-H441 cells […] assessed as reduction in cell viability after 72 hrs by MTT assay. Type of series: functional, cell-based. Particulars: NCI-H441, 72 h.
The nature of series [9]: Metabolic stability in human liver microsomes assessed as half life. Type of series: ADME, Microsome. On the technique in general: Microsomes from liver hold many membrane-bound enzymes, among them those of drug oxidation.
Series [10] is described as follows: Metabolic stability in human liver microsomes assessed as intrinsic clearance per gram protein. Type of series: ADME, Microsome.
Series [11] relates to L929. The experiment in a line: Cytotoxicity against mouse L929 cells. Type of series: cell-based.
The nature of series [12]: Antitumor activity against mouse C26 cells xenografted in BALB/c mouse assessed as tumor growth inhibition at 50 mg/kg, po administered once daily and measured every two days by caliper method relative to control. The format is functional. Particulars: 48 h, read-out: TGI.
Series [13] deals with NCI-H460. The experiment in a line: Antitumor activity against human NCI-H460 cells xenografted in nude BABL/c mouse assessed as tumor growth inhibition at 60 mg/kg, po administered once daily and measured every two days by caliper method relative to control. Type of series: functional. Particulars: 48 h, read-out: TGI.
Series [14] concerns NCI-H460. Kind of series: Induction of cell cycle arrest in human NCI-H460 cells assessed as accumulation at G0/G1 phase at 1 uM incubated for 24 hrs by propidium iodide staining based flow cytometry (reference value: 53.97 %). Type of series: functional.
Series [15] deals with NCI-H460. The experiment in a line: Induction of cell cycle arrest in human NCI-H460 cells assessed as accumulation at G2/M phase at 1 uM incubated for 24 hrs by propidium iodide staining based flow cytometry (reference value: 16.71 %). The format is functional.
The subject of series [16] is NCI-H460. Kind of series: Induction of cell cycle arrest in human NCI-H460 cells assessed as accumulation at S phase at 1 uM incubated for 24 hrs by propidium iodide staining based flow cytometry (reference value: 29.32 %). Type of series: functional.
Series [17] relates to NCI-H460. The experiment in a line: Induction of cell cycle arrest in human NCI-H460 cells assessed as accumulation at G0/G1 phase at 5 uM incubated for 24 hrs by propidium iodide staining based flow cytometry (reference value: 53.97 %). Type of series: functional.
Series [18] concerns NCI-H460. The experiment in a line: Induction of cell cycle arrest in human NCI-H460 cells assessed as accumulation at G2/M phase at 5 uM incubated for 24 hrs by propidium iodide staining based flow cytometry (reference value: 16.71 %). The format is functional.
Series [19] concerns NCI-H460. The experiment in a line: Induction of cell cycle arrest in human NCI-H460 cells assessed as accumulation at S phase at 5 uM incubated for 24 hrs by propidium iodide staining based flow cytometry (reference value: 29.32 %). Type of series: functional.
In series [20] the test system is NCI-H460. The experiment in a line: Induction of cell cycle arrest in human NCI-H460 cells assessed as accumulation at G0/G1 phase at 10 uM incubated for 24 hrs by propidium iodide staining based flow cytometry (reference value: 53.97 %). The format is functional.
Series [21] relates to NCI-H460. Kind of series: Induction of cell cycle arrest in human NCI-H460 cells assessed as accumulation at G2/M phase at 10 uM incubated for 24 hrs by propidium iodide staining based flow cytometry (reference value: 16.71 %). The format is functional.
In series [22] the test system is NCI-H460. The experiment in a line: Induction of cell cycle arrest in human NCI-H460 cells assessed as accumulation at S phase at 10 uM incubated for 24 hrs by propidium iodide staining based flow cytometry (reference value: 29.32 %). Type of series: functional.
For series [23], the system named is NCI-H460. The experiment in a line: Induction of apoptosis in human NCI-H460 cells assessed as viable cells at 1 uM after 48 hrs by Annexin V-FITC/propidium iodide staining based flow cytometric analysis (reference value: 91.528 %). Type of series: functional. Particulars: read-out: Activity.
The subject of series [24] is NCI-H460. Kind of series: Induction of apoptosis in human NCI-H460 cells assessed as early apoptotic cells at 1 uM after 48 hrs by Annexin V-FITC/propidium iodide staining based flow cytometric analysis (reference value: 3.980 %). The format is functional.
The test system of series [25] is NCI-H460. The experiment in a line: Induction of apoptosis in human NCI-H460 cells assessed as late apoptotic cells at 1 uM after 48 hrs by Annexin V-FITC/propidium iodide staining based flow cytometric analysis (reference value: 3.995 %). The format is functional.
Series [26] has as its system NCI-H460. The experiment in a line: Induction of apoptosis in human NCI-H460 cells assessed as necrotic cells at 1 uM after 48 hrs by Annexin V-FITC/propidium iodide staining based flow cytometric analysis (reference value: 0.498 %). The format is functional.
In series [27] the test system is NCI-H460. The experiment in a line: Induction of apoptosis in human NCI-H460 cells assessed as viable cells at 2 uM after 48 hrs by Annexin V-FITC/propidium iodide staining based flow cytometric analysis (reference value: 91.528 %). The format is functional. Particulars: read-out: Activity.
Series [28] has as its system NCI-H460. The experiment in a line: Induction of apoptosis in human NCI-H460 cells assessed as early apoptotic cells at 2 uM after 48 hrs by Annexin V-FITC/propidium iodide staining based flow cytometric analysis (reference value: 3.980 %). The format is functional.
The test system of series [29] is NCI-H460. Kind of series: Induction of apoptosis in human NCI-H460 cells assessed as late apoptotic cells at 2 uM after 48 hrs by Annexin V-FITC/propidium iodide staining based flow cytometric analysis (reference value: 3.995 %). Type of series: functional.
Series [30] deals with NCI-H460. The experiment in a line: Induction of apoptosis in human NCI-H460 cells assessed as necrotic cells at 2 uM after 48 hrs by Annexin V-FITC/propidium iodide staining based flow cytometric analysis (reference value: 0.498 %). Type of series: functional.
In series [31] the test system is NCI-H460. Kind of series: Induction of apoptosis in human NCI-H460 cells assessed as viable cells at 5 uM after 48 hrs by Annexin V-FITC/propidium iodide staining based flow cytometric analysis (reference value: 91.528 %). The format is functional. Particulars: read-out: Activity.
Series [32] deals with NCI-H460. Kind of series: Induction of apoptosis in human NCI-H460 cells assessed as early apoptotic cells at 5 uM after 48 hrs by Annexin V-FITC/propidium iodide staining based flow cytometric analysis (reference value: 3.980 %). Type of series: functional.
For series [33], the system named is NCI-H460. The experiment in a line: Induction of apoptosis in human NCI-H460 cells assessed as late apoptotic cells at 5 uM after 48 hrs by Annexin V-FITC/propidium iodide staining based flow cytometric analysis (reference value: 3.995 %). Type of series: functional.
Series [34] concerns NCI-H460. Kind of series: Induction of apoptosis in human NCI-H460 cells assessed as necrotic cells at 5 uM after 48 hrs by Annexin V-FITC/propidium iodide staining based flow cytometric analysis (reference value: 0.498 %). The format is functional.
The subject of series [35] is NCI-H460. Kind of series: Induction of apoptosis in human NCI-H460 cells assessed as viable cells at 10 uM after 48 hrs by Annexin V-FITC/propidium iodide staining based flow cytometric analysis (reference value: 91.528 %). The format is functional. Particulars: read-out: Activity.
Series [36] deals with NCI-H460. Kind of series: Induction of apoptosis in human NCI-H460 cells assessed as early apoptotic cells at 10 uM after 48 hrs by Annexin V-FITC/propidium iodide staining based flow cytometric analysis (reference value: 3.980 %). The format is functional.
Series [37] concerns NCI-H460. The experiment in a line: Induction of apoptosis in human NCI-H460 cells assessed as late apoptotic cells at 10 uM after 48 hrs by Annexin V-FITC/propidium iodide staining based flow cytometric analysis (reference value: 3.995 %). Type of series: functional.
In series [38] the test system is NCI-H460. Kind of series: Induction of apoptosis in human NCI-H460 cells assessed as necrotic cells at 10 uM after 48 hrs by Annexin V-FITC/propidium iodide staining based flow cytometric analysis (reference value: 0.498 %). Type of series: functional.

`CCN(CC)CCCC(C)Nc1ccnc2cc(Cl)ccc12` (stereo not drawn) [CHLOROQUINE PHOSPHATE]: the inhibition in vivo at 10 mg/kg in series [1] worked out at 8.67%.

For the compound `C=CCc1ccc(O)c(-c2cc(CC=C)cc(CN3CCC(N)CC3)c2O)c1`, the IC50 (in general, the midpoint of a concentration-inhibition curve) in series [2] is 10.8 µM; in series [3], 8.68 µM; in series [4], 9.25 µM; in series [5], 8.31 µM; in series [6] it was 9.66 µM; in series [7], 6.46 µM. The results for the IC50 in series [8] and in [11] were 7.12 µM and 830 nM, respectively. Further, the half-life (commonly how long it takes for the measured level to halve) in series [9] is 126 min. The CLint in series [10] came to 11 mL/min/g. The inhibition in vivo at 50 mg/kg in series [12] is 45.5%. The inhibition in vivo at 60 mg/kg in series [13] was determined as 45.2%. For the same compound, the Activity in series [14] was determined as 55%; in series [15], 22.68%; in series [16], 22.32%; in series [17] it was 58.76%; in series [18], 18.49%; in series [19], 22.74%. In addition, the Activity in series [20] worked out at 65.66%; in [21] it was 15.16%; in series [22], 19.19%; in series [24], 6.017%; in series [25], 4.207%; in series [26], 0.931%. Further, the Activity in [28] came to 6.067%; in [29], 5.012%; in [30] it was 1.301%; in series [32] it was 6.82%; in series [33], 5.72%; in [34], 0.51%. In addition, the Activity is listed as 19.124% in series [36], 7.246% in [37] and 0.173% in series [38]. Further, in [23], the viability at 1 µM came to 88.8%. Further, the viability at 2 µM in series [27] worked out at 87.6%. Further, the viability at 5 µM in series [31] is 86.9%. In series [35], the viability at 10 µM came to 73.4%.
